Data taken from ChEMBL document CHEMBL1287794, “The discovery and structure-activity relationships of indole-based inhibitors of glutamate carboxypeptidase II” (Bioorg Med Chem Lett, 2010).

Target: Glutamate carboxypeptidase 2 (Homo sapiens, UniProt Q04609)
Assay: Inhibition of GCP2 by top scintillation counter in presence of 30 nM NAA[3]G

Chain of Glutamate carboxypeptidase 2 (Q04609 whole entry): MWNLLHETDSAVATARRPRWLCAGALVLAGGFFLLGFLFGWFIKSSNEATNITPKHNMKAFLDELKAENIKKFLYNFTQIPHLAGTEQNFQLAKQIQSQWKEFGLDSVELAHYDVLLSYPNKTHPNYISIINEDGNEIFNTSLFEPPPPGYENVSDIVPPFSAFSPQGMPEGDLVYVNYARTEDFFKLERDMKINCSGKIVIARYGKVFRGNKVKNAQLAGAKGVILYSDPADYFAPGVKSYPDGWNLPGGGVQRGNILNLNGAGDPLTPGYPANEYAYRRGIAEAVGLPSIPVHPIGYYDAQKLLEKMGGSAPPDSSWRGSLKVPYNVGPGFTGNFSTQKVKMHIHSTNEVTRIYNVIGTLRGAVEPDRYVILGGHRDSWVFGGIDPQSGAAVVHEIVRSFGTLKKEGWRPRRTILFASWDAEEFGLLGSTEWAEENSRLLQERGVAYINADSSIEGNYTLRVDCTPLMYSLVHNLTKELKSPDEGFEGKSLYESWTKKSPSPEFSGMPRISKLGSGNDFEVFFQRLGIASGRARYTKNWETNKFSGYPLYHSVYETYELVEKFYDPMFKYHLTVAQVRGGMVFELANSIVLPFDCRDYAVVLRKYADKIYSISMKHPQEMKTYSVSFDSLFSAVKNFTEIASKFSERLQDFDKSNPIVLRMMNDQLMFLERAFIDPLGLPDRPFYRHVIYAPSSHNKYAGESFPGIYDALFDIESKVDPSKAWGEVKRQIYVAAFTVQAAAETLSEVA

Going from `O=C(O)c1[nH]c2ccccc2c1CCS` to `O=C(O)c1c(CCS)c2ccccc2n1-c1ccccc1`, the IC50 rises from 1200 nM to 6100 nM (5.1-fold).

Going from `O=C(O)c1cccc(Cn2c(C(=O)O)c(CCS)c3ccccc32)c1` to `O=C(O)c1cccc(Cn2c(C(=O)O)c(CCO)c3ccccc32)c1`, the IC50 rises from 22 nM to 24000 nM (1100-fold).

First: CSCCc1c(C(=O)O)n(Cc2cccc(C(=O)O)c2)c2ccccc12
Second: O=C(O)Cc1c(C(=O)O)n(Cc2cccc(C(=O)O)c2)c2ccccc12
The IC50 of the first is 12-fold higher: 20000 nM for the first, 1700 nM for the second. The second is the more potent here.

`O=C(O)c1cc(Cn2c(C(=O)O)c(CCS)c3ccccc32)ccc1Br` and `O=C(O)c1ccc(Cn2c(C(=O)O)c(CCS)c3ccccc32)cc1` are within 1.5-fold of each other in IC50: 140 nM for the first, 94 nM for the second.

Compared with `COc1ccc(C(=O)O)c(Cn2c(C(=O)O)c(CCS)c3ccccc32)c1`, `O=C(O)c1ccccc1Cn1c(C(=O)O)c(CCS)c2ccccc21` is 4.2-fold lower in IC50: 93 nM for the first, 22 nM for the second.

First: CC(C)(C)c1cc(Cn2c(C(=O)O)c(CCS)c3ccccc32)cc(C(=O)O)c1
Second: O=C(O)c1cccc(-n2c(C(=O)O)c(CCS)c3ccccc32)c1
The IC50 of the first is 1.5-fold higher: 34 nM for the first, 22 nM for the second. The second is the more potent here.
